“And” between values parts separate entries of the source, which are not always exact repeats. Equal entries are not always repeated. Where two headings read alike, the source gives them in different places.
Key:
[1] = target: T1, neuraminidase from Clostridium perfringens (Clostridium perfringens, UniProt A0A0H2YQR1); assay type: binding; conditions: for KSV (Stern–Volmer quenching constant): excitation 290 nm, emission near 360 nm
[2] = target: T1, neuraminidase from Clostridium perfringens; assay type: biochemical; conditions: for Ki: Dixon plot, read-out: Ki (inhibition constant); for Inhibition Mode: Lineweaver–Burk plot; for IC50: fluorescent substrate 100 μM, 0.2 unit/mL enzyme, 50 mM sodium acetate buffer, read-out: IC50 against bacterial neuraminidase (BNA)
[3] = fluorescence quenching, without substrate

T1 sequence (A0A0H2YQR1 42-694 limits assumed): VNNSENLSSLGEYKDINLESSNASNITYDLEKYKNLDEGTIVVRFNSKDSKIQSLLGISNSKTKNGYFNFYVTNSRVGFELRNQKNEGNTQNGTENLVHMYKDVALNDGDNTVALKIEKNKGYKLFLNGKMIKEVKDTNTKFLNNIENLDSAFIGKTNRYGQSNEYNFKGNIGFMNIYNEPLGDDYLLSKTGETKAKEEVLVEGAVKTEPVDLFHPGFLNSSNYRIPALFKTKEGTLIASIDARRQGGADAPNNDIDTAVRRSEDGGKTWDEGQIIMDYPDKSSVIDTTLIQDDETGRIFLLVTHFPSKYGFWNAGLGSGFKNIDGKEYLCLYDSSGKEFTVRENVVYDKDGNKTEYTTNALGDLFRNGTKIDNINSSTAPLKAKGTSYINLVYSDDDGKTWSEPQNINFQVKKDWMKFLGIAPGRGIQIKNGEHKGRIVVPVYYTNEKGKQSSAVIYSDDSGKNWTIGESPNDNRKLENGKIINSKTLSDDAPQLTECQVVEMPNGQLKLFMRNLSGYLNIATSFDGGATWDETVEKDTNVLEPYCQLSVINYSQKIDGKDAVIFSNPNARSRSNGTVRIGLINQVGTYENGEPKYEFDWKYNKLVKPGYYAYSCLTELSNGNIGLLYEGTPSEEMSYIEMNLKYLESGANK

3,4′-O-dimethyl quercetin [Compound 2]
KSV (Stern–Volmer quenching constant) ([1]; without substrate): 1440 L/mol | KA (binding constant) [1, 3]: 39940 L/mol | n (number of binding sites) [1, 3]: 1.1063 | Ki [2]: 24.7 ± 0.5 µM | Inhibition Mode [2]: Noncompetitive | IC50 [2]: 24.3 µM and 25.8 µM

3,7-O-dimethyl quercetin [Compound 3]
KSV (Stern–Volmer quenching constant) ([1]; without substrate): 1530 L/mol | KA (binding constant) [1, 3]: 38180 L/mol | n (number of binding sites) [1, 3]: 1.0959 | Ki [2]: 22.4 ± 0.9 µM | Inhibition Mode [2]: Noncompetitive | IC50 [2]: 25.8 µM and 24.3 µM

COc1c(-c2ccc(O)c(O)c2)oc2cc(O)cc(O)c2c1=O [Compound 1, 3-O-methyl quercetin]
KA (binding constant) [1]: 0.05105 | KSV (Stern–Volmer quenching constant) ([1]; without substrate): 2520 L/mol | n (number of binding sites) [1, 3]: 1.2106 | Inhibition Mode [2]: Noncompetitive

COc1cc(O)c2c(=O)c(OC)c(-c3ccc(OC)c(O)c3)oc2c1 [Compound 4, 3,7,4′-O-trimethyl quercetin]
KA (binding constant) [1]: 0.00021 | KSV (Stern–Volmer quenching constant) ([1]; without substrate): 360 L/mol | n (number of binding sites) [1, 3]: 0.7071 | Inhibition Mode [2]: Noncompetitive

Source: PMC10386613 (Molecules, 2023)
